Measured values from patent publication US20160053227A1, “AGENT FOR INDUCING DIFFERENTIATION OF WHITE ADIPOCYTES INTO BROWN-LIKE ADIPOCYTES” (UHA MIKAKUTO CO., LTD., priority 2013, published 2016).

Columns and labels:
[1] = tested on: 3T3-L1 precursor adipocyte; test: Example II-3: index gene expression in adipocytes after maturation, with or without adrenaline stimulation, real-time RT-PCR; type: cell-based, mouse; settings: matured cells, 1 μM L-adrenaline for 2 hours; control 3.1 times
Procedure: Since it was evaluated in Example II-2 whether the derivative-containing composition induces the differentiation from the white adipocytes into the brown-like adipocytes using the cells immediately after the induction of the differentiation, it was evaluated in Example II-3 whether the relevant induced cell maintains the trait of the brown-like adipocytes even after maturation using matured adipocytes. The evaluation was made using as indexes the expression level of each gene of FGF-21, PGC-1α, and cell death-inducing DFFA-like effector a (Cidea) which is a brown-like adipocyte marker gene as well as the expression level of […] gene when adding adrenaline to the adipocyte after maturation based on the understanding that the brown-like adipocyte responds to the adrenaline stimulation thereby increasing the expression level of UCP1 gene, whereby the induction of the differentiation of the white adipocytes into the brown-like adipocytes was confirmed. […]
Based on the Ct values (Threshold Cycle: number of cycles for achieving a certain amplification level (threshold)) of […], FGF-21, PGC-1α, PGC-1β, Cidea, and UCP1 in each cell obtained, the relative value of each gene expression level of FGF-21, PGC-1β, PGC-1α, Cidea, and UCP1 was calculated.

[2] = Physicochemical characteristics: solubility
From the text: The physicochemical characteristics of UHA4022 are as follows.

Solubility in chloroform ([2]; Chloroform)	Solubility in DMSO ([2]; DMSO)	Solubility in ethanol ([2]; Ethanol)	Solubility in ethyl acetate ([2]; Ethyl acetate)	Solubility in methanol ([2]; Methanol)	Solubility in water ([2]; Water)	SMILES	UCP1 gene expression-increasing effect of adrenaline, presence vs absence of adrenaline [1]
–	–	–	–	–	–	CN(CCOc1ccc(CC2SC(=O)NC2=O)cc1)c1ccccn1 (stereo not shown) [rosiglitazone]	6.2 times
Hardly soluble	Soluble	Soluble	Hardly soluble	Soluble	Hardly soluble	Oc1ccc(/C=C\c2c3c(cc4c2C(c2ccc(O)cc2)Cc2cc(O)cc(O)c2-4)-c2c(O)cc(O)cc2CC3c2ccc(O)cc2)cc1 (stereo not shown) [UHA4022]	–
